{"source": "patent US5180739A", "about": "“Use of 3-oxygermylpropionic acid to treat and prevent diabetes-dependent type of autoimmune diseases” (Sanwa Kagaku Kenkyusho Co., Ltd., priority 1990, dated 1993)", "key": {"mice": {"system": "mice", "assay": "Acute toxicity test, oral administration (LD50), mice", "format": "in vivo", "procedure": "(§1) Acute and subacute (chronic) toxicity tests were performed using SD rats and mice which has received 3-oxygermylpropionic acid represented by Formula I (hereinafter referred to Compound a) and the above-mentioned primary composition (hereinafter called Composition b).\n(§2) For experimentation, a group of 8-10 animals were used.\n(§3) Oral administration (no significant\n(§4) difference between Compound -a and […]"}, "SD rats": {"system": "SD rats", "assay": "Acute toxicity test, oral administration (LD50), rats", "format": "in vivo", "procedure": "as §1, §2, §3, §4"}, "SD rats and mice": {"system": "SD rats and mice", "assay": "Acute toxicity test, comparison and general symptoms", "format": "in vivo", "procedure": "as §1, §2"}, "SD male rats": {"system": "SD male rats", "assay": "Subacute toxicity test, oral, over 3 months", "format": "in vivo", "procedure": "as §1, §2\nOver 3 months, Compound a and Composition b were orally administered to two groups of SD male rats at doses of 256, 380, 640, 1300, 1600 and 4000 mg/kg/day to determined which dose to have no toxic influence at all and which dose to induce positive poisoning."}, "[1]": {"system": "mice with streptozosin-induced diabetes", "assay": "Concentration of glucose in the blood of mice with STZ-induced diabetes", "format": "in vivo, AKR/J1 mouse", "settings": "rejection rate of 5%", "procedure": "(§5) Continuous 5-day administration of streptozocin (STZ) to an AKR/J1 line mice, that ia an inbred mice with a spontaneous symptom of leukemia, can cause it to take a disease similar to human Type I diabetes (dependent upon insulin). Tests were performed for the purpose of going into influence Compound a and Composition b have on such a mice with streptozosin-induced diabetes.\n(§6) Streptozocin (STZ) was continuously administrated to the abdominal cavity of a (masculine) mouse belonging to AKR/J1 at a dose of 40 mg/kg for 5 days to induce an increase in the concentration of glucose in the blood and a decrease in the amount of insulin in the pancreas.\n(§7) With Compound a dissolved in a phosphate buffer solution with pH 7.4, the concentration of glucose in the blood was measured at 7 days, 14 days and 21 days from STZ dosing, using a GOD-PAP kit (made by Boehringer Mannheim) based on the glucose oxidase process for measurement. In addition, the amount of insulin in the pancreas, extracted by the acid-ethanol process, was assayed with a radio immuno assay kit (made by Pharmacia Aktiebolag) based on an immunoassay process making use of a competitive reaction by ^125 I-labeled insulin (see Soeldner, JS & Slone, D, \"Diabetes\", Vol. 14, pp. 771-779, 1985).\n(§8) A similar mouse was caused to develop STZ-induced diabetes in a similar manner as referred to in Test Example 1.\n(§9) A solution of Compound a in a phosphate buffer with pH 7.4 was continuously administered to the abdominal cavity of the animal at 5 mg/kg over 7 days from STZ dosing.\n(§10) At 7 days, 14 days and 21 days from STZ dosing, the concentration of glucose in the blood and the amount of insulin in the pancreas were measured in similar manners as mentioned in Test Example 1.\n(§11) A solution of Compound a in a phosphate buffer with pH 7.4 was continuously administered to the abdominal cavity of the animal at 5 mg/kg 15 days from the 7th day after STZ dosing."}, "[2]": {"system": "mice with streptozosin-induced diabetes", "assay": "Amount of insulin in the pancreas of mice with STZ-induced diabetes", "format": "in vivo, AKR/J1 mouse", "settings": "rejection rate of 5%", "procedure": "as §5, §6, §7, §8, §9, §10, §11"}, "Langerhans' islands": {"system": "Langerhans' islands", "assay": "Degree of cellular infiltration in the Langerhans' islands of mice with STZ-induced diabetes", "format": "in vivo, AKR/J1 mouse", "settings": "for Degrees of pancreatitis, 0 (0%) / Degrees of pancreatitis, I (0-25%) / Degrees of pancreatitis, II (25-50%) / Degrees of pancreatitis, III (50-100%) / Incidence of pancreatitis (I-III): STZ + a, at 21 days; for Incidence of pancreatitis (I-III): STZ + buffer 68", "procedure": "as §5\nSimilar mice were caused to develop STZ-induced diabetes in a similar manner as described in Test Example 1.\nA solution of Compound a in a similar phosphate buffer with pH 7.4 as used in Test Example 1 was continuously administrated at a rejection rate of 5% to the abdominal cavities according to similar dosing schemes as applied in Test Examples 1, 2 and 3.\nAt 21 days from STZ dosing, the degree of cellular infiltration in the Langerhans' islands were assayed under an optical microscope."}, "[3]": {"settings": "Japanese Patent Kokai Publication No. Sho 61-161123; cited from earlier work"}}}
{"substance": "3-oxygermylpropionic acid [Compound a]", "values": [{"measurement": "LD50", "setting": "mice; female", "value": "≥ 5,800 mg/kg"}, {"measurement": "LD50", "setting": "mice; male", "value": "≥ 5,600 mg/kg"}, {"measurement": "LD50", "setting": "SD rats; female", "value": "≥ 7,050 mg/kg"}, {"measurement": "LD50", "setting": "SD rats; male", "value": "≥ 7,700 mg/kg"}, {"measurement": "general symptoms", "setting": "SD rats and mice; in vivo", "value": "general symptoms of appeasement, diarrhea, vomiting and typhlectasis"}, {"measurement": "difference in acute toxicity between Compound a and Composition b", "setting": "SD rats and mice; oral, mice and rats", "value": "no significant difference"}, {"measurement": "dose inducing positive poisoning", "setting": "SD male rats; SD male rats, oral, 3 months, daily", "value": 1600, "unit": "mg/kg"}, {"measurement": "reversibility of toxic symptoms without drug treatment", "setting": "SD male rats; rat, in vivo", "value": "Toxic symptoms then disappeared"}, {"measurement": "dose with no toxic influence whatsoever", "setting": "SD male rats; rat, in vivo, po, 131400 min", "value": 256, "unit": "mg/kg"}, {"measurement": "concentration of glucose in the blood (increased by STZ)", "setting": "[1]; Test Example 1, 21 days from dosing, FIG. 1(a)", "value": "significant improvements"}, {"measurement": "concentration of glucose in the blood (increased by STZ)", "setting": "[1]; Test Example 2, 5 mg/kg to the abdominal cavity over 7 days from STZ dosing, 21 days from dosing, FIG. 2(a)", "value": "significant improvements"}, {"measurement": "concentration of glucose in the blood (increased by STZ)", "setting": "[1]; Test Example 3, 5 mg/kg to the abdominal cavity 15 days from the 7th day after STZ dosing, 21 days from dosing, FIG. 3(a)", "value": "significant improvements"}, {"measurement": "amount of insulin in the pancreas (decreased by STZ)", "setting": "[2]; Test Example 1, 21 days from dosing, FIG. 1(b)", "value": "significant improvements"}, {"measurement": "amount of insulin in the pancreas (decreased by STZ)", "setting": "[2]; Test Example 2, 5 mg/kg to the abdominal cavity over 7 days from STZ dosing, 21 days from dosing, FIG. 2(b)", "value": "significant improvements"}, {"measurement": "amount of insulin in the pancreas (decreased by STZ)", "setting": "[2]; Test Example 3, 5 mg/kg to the abdominal cavity 15 days from the 7th day after STZ dosing, 21 days from dosing", "value": "significant improvements"}, {"measurement": "Degrees of pancreatitis, 0 (0%)", "setting": "Langerhans' islands; 1-7 days", "value": 70, "unit": "%"}, {"measurement": "Degrees of pancreatitis, I (0-25%)", "setting": "Langerhans' islands; 1-7 days", "value": 23, "unit": "%"}, {"measurement": "Degrees of pancreatitis, II (25-50%)", "setting": "Langerhans' islands; 1-7 days", "value": 4, "unit": "%"}, {"measurement": "Degrees of pancreatitis, III (50-100%)", "setting": "Langerhans' islands; 1-7 days", "value": 3, "unit": "%"}, {"measurement": "Incidence of pancreatitis (I-III)", "setting": "Langerhans' islands; 1-7 days", "value": 30, "unit": "%"}, {"measurement": "Degrees of pancreatitis, 0 (0%)", "setting": "Langerhans' islands; 1-21 days (first line)", "value": 70, "unit": "%"}, {"measurement": "Degrees of pancreatitis, I (0-25%)", "setting": "Langerhans' islands; 1-21 days (first line)", "value": 25, "unit": "%"}, {"measurement": "Degrees of pancreatitis, II (25-50%)", "setting": "Langerhans' islands; 1-21 days (first line)", "value": 4, "unit": "%"}, {"measurement": "Degrees of pancreatitis, III (50-100%)", "setting": "Langerhans' islands; 1-21 days (first line)", "value": 1, "unit": "%"}, {"measurement": "Incidence of pancreatitis (I-III)", "setting": "Langerhans' islands; 1-21 days (first line)", "value": 30, "unit": "%"}, {"measurement": "Degrees of pancreatitis, 0 (0%)", "setting": "Langerhans' islands; third line, 1-21 days", "value": 68, "unit": "%"}, {"measurement": "Degrees of pancreatitis, I (0-25%)", "setting": "Langerhans' islands; third line, 1-21 days", "value": 30, "unit": "%"}, {"measurement": "Degrees of pancreatitis, II (25-50%)", "setting": "Langerhans' islands; third line, 1-21 days", "value": 1, "unit": "%"}, {"measurement": "Degrees of pancreatitis, III (50-100%)", "setting": "Langerhans' islands; third line, 1-21 days", "value": 1, "unit": "%"}, {"measurement": "Incidence of pancreatitis (I-III)", "setting": "Langerhans' islands; third line, 1-21 days", "value": 32, "unit": "%"}, {"measurement": "infiltrated cells in the Langerhans' islands (increased by STZ dosing)", "setting": "Langerhans' islands; Test Example 4, 21 days from dosing", "value": "successfully decreased the infiltrated cells"}, {"measurement": "immunity-accommodative actions", "setting": "[3]", "value": "immunity-accommodative actions"}]}
